Reference: patent publication US9730937B2, “RAF kinase modulator compounds and methods of use thereof” (AMBIT BIOSCIENCES CORPORATION, priority 2008, dated 2017)

system: panel of 290 distinct kinases (321 in the larger panel), excluding mutant variants; settings: asterisk: panel of 321 distinct kinases

| Structure (SMILES) | S35 |
| --- | --- |
| COCCOc1cc2ncnc(Oc3cccc(NC(=O)Nc4cc(C(F)(F)F)nn4-c4ccc(C)cc4)c3)c2cc1OC [Ex 227, 1-{3-[6-methoxy-7-(2-methoxyethoxy)quinazolin-4-yloxy]phenyl}-3-[1-p-tolyl-3-(trifluoromethyl)-1H-pyrazol-5-yl]urea] | C* (0.20 < C ≦ 0.40) |
| COCCOc1cc2ncnc(Oc3cccc(NC(=O)Nc4cc(C(C)(F)F)no4)c3)c2cc1OC [Ex 211, 1-(3-(1,1-difluoroethyl)isoxazol-5-yl)-3-(3-(6-methoxy-7-(2-methoxyethoxy)quinazolin-4-yloxy)phenyl)urea] | C* (0.20 < C ≦ 0.40) |
| CCOC(=O)Cn1nc(C(C)(C)C)cc1NC(=O)Nc1cccc(Sc2ncnc3cc(OCCOC)c(OC)cc23)c1 [Ex 237, ethyl 2-[3-tert-butyl-5-(3-{3-[6-methoxy-7-(2-methoxyethoxy)quinazolin-4-ylthio]phenyl}ureido)-1H-pyrazol-1-yl]acetate] | C* (0.20 < C ≦ 0.40) |
| COc1cc2ncnc(Oc3cccc(NC(=O)Nc4cc(C(F)(F)F)no4)c3)c2cc1OC [Ex 254, 1-(3-(6,7-dimethoxyquinazolin-4-yloxy)phenyl)-3-(3-(trifluoromethyl)isoxazol-5-yl)urea] | C* (0.20 < C ≦ 0.40) |
| COCCOc1cc2ncnc(Oc3cccc(NC(=O)Nc4cc(C(C)(C)C)nn4C)c3)c2cc1OC [Ex 209, 1-(3-tert-butyl-1-methyl-1H-pyrazol-5-yl)-3-(3-(6-methoxy-7-(2-methoxyethoxy)quinazolin-4-yloxy)phenyl)urea] | C* (0.20 < C ≦ 0.40) |
| COCCOc1cc2ncnc(Oc3cccc(NC(=O)Nc4cc(C5CCCC5)on4)c3)c2cc1OC [Ex 219, 1-(5-cyclopentylisoxazol-3-yl)-3-(3-(6-methoxy-7-(2-methoxyethoxy)quinazolin-4-yloxy)phenyl)urea] | C* (0.20 < C ≦ 0.40) |
| COCCOc1cc2ncnc(Sc3cccc(NC(=O)Nc4cc(C(F)(F)F)nn4-c4ccc(F)cc4)c3)c2cc1OC [Ex 242, 1-[1-(4-fluorophenyl)-3-(trifluoromethyl)-1H-pyrazol-5-yl]-3-{3-[6-methoxy-7-(2-methoxyethoxy)quinazolin-4-ylthio]phenyl}urea] | C* (0.20 < C ≦ 0.40) |
| COCCOc1cc2ncnc(Oc3cccc(NC(=O)Nc4cc(C(C)(C)C)nn4-c4ccccc4)c3)c2cc1OC [Ex 210, 1-(3-tert-butyl-1-phenyl-1H-pyrazol-5-yl)-3-(3-(6-methoxy-7-(2-methoxyethoxy)quinazolin-4-yloxy)phenyl)urea] | D* (D > 0.40) |
| COCCOc1cc2ncnc(Sc3cccc(NC(=O)Nc4cc(C(F)(F)F)nn4-c4ccc(C)cc4)c3)c2cc1OC [Ex 243, 1-{3-[6-methoxy-7-(2-methoxyethoxy)quinazolin-4-ylthio]phenyl}-3-[1-p-tolyl-3-(trifluoromethyl)-1H-pyrazol-5-yl]urea] | C* (0.20 < C ≦ 0.40) |
| COc1cc2ncnc(Sc3cccc(NC(=O)Nc4cc(C(C)(C)F)no4)c3)c2cc1OCCCN1CCS(=O)(=O)CC1 [Ex 245, 1-(3-(2-fluoropropan-2-yl)isoxazol-5-yl)-3-(3-(7-methoxy-6-(4,4-dioxo-3-thiomorpholinopropoxy)quinazolin-4-ylthio)phenyl)urea] | C* (0.20 < C ≦ 0.40) |
| COCCOc1cc2ncnc(Oc3cccc(NC(=O)Nc4cc(C(C)(CF)CF)nn4-c4ccccc4)c3)c2cc1OC [Ex 228, 1-[3-(1,3-difluoro-2-methylpropan-2-yl)-1-phenyl-1H-pyrazol-5-yl]-3-{3-[6-methoxy-7-(2-methoxyethoxy)quinazolin-4-yloxy]phenyl}urea] | D* (D > 0.40) |
| COCCOc1cc2ncnc(Sc3cccc(NC(=O)Nc4cc(C(C)(C)C)nn4-c4ccccc4)c3)c2cc1OC [Ex 236, 1-(3-tert-butyl-1-phenyl-1H-pyrazol-5-yl)-3-(3-(6-methoxy-7-(2-methoxyethoxy)quinazolin-4-ylthio)phenyl)urea] | D* (D > 0.40) |

same assay, conditions: kinase selectivity score, 290 distinct kinases; class symbols

| Structure (SMILES) | S35 |
| --- | --- |
| COc1cc2ncnc(Oc3cccc(NC(=O)Nc4cc(C(C)(C)F)no4)c3)c2cc1OC [Ex 126, 1-(3-(6,7-dimethoxyquinazolin-4-yloxy)phenyl)-3-(3-(2-fluoropropan-2-yl)isoxazol-5-yl)urea] | C (0.20 < C ≦ 0.40) |
| COCCOc1cc(NC(=O)Nc2cccc(Oc3ncnc4cc(OCCOC)c(OC)cc34)c2)cc(C(F)(F)F)c1 [Ex 117, 1-(3-(6-methoxy-7-(2-methoxyethoxy)quinazolin-4-yloxy)phenyl)-3-(3-(2-methoxyethoxy)-5-(trifluoromethyl)phenyl)urea] | C (0.20 < C ≦ 0.40) |

same assay, conditions: kinase selectivity score, value marked * (larger kinase panel); class symbols

| Structure (SMILES) | S35 |
| --- | --- |
| COc1cc2ncnc(Oc3cccc(NC(=O)Nc4cc(C5(C(F)(F)F)CC5)nn4-c4ccccc4)c3)c2cc1OC [Ex 137, 1-(3-(6,7-dimethoxyquinazolin-4-yloxy)phenyl)-3-(1-phenyl-3-(1-(trifluoromethyl)cyclopropyl)-1H-pyrazol-5-yl)urea] | D* (D > 0.40) |

same assay, conditions: no asterisk: panel of 290 distinct kinases

| Structure (SMILES) | S35 |
| --- | --- |
| COCCOc1cc2ncnc(Oc3cccc(NC(=O)Nc4cc(C(C)(C)C)nn4-c4ccc(C)cc4)c3)c2cc1OC [Ex 276, 1-(3-tert-butyl-1-p-tolyl-1H-pyrazol-5-yl)-3-(3-(6-methoxy-7-(2-methoxyethoxy)quinazolin-4-yloxy)phenyl)urea] | D (D > 0.40) |
| COc1cc2ncnc(Sc3cccc(NC(=O)Nc4cc(C(C)(C)C)nn4-c4cccc(C)c4)c3)c2cc1OC [Ex 286, 1-(3-tert-butyl-1-m-tolyl-1H-pyrazol-5-yl)-3-(3-(6,7-dimethoxyquinazolin-4-ylthio)phenyl)urea] | D (D > 0.40) |
| COc1cc2ncnc(Oc3cc(NC(=O)Nc4cc(C(C)(C)F)no4)c(F)cc3F)c2cc1OC [Ex 269, 1-(5-(6,7-dimethoxyquinazolin-4-yloxy)-2,4-difluorophenyl)-3-(3-(2-fluoropropan-2-yl)isoxazol-5-yl)urea] | D (D > 0.40) |
| COc1cc2ncnc(Sc3cccc(NC(=O)Nc4cccc(C(C)(C)C#N)c4)c3)c2cc1OC [Ex 279, 1-(3-(2-cyanopropan-2-yl)phenyl)-3-(3-(6,7-dimethoxyquinazolin-4-ylthio)phenyl)urea] | C (0.20 < C ≦ 0.40) |
| COc1cc2ncnc(Sc3cccc(NC(=O)Nc4cc(C(C)(C)C)nn4-c4ccc(C)cc4C)c3)c2cc1OC [Ex 284, 1-(3-tert-butyl-1-(2,4-dimethylphenyl)-1H-pyrazol-5-yl)-3-(3-(6,7-dimethoxyquinazolin-4-ylthio)phenyl)urea] | C (0.20 < C ≦ 0.40) |
| CCOc1cc2c(Sc3cccc(NC(=O)Nc4cc(C(C)(C)C(F)(F)F)on4)c3)ncnc2cc1OC [Ex 262, 1-(3-(6-ethoxy-7-methoxyquinazolin-4-ylthio)phenyl)-3-(5-(1,1,1-trifluoro-2-methylpropan-2-yl)isoxazol-3-yl)urea] | C (0.20 < C ≦ 0.40) |
| CCOc1cc2c(Oc3cccc(NC(=O)Nc4cc(C(C)(C)C)nn4-c4ccccc4)c3)ncnc2cc1OC [Ex 390, 1-(3-tert-butyl-1-phenyl-1H-pyrazol-5-yl)-3-(3-(6-ethoxy-7-methoxyquinazolin-4-yloxy)phenyl)urea] | D (D > 0.40) |
| COc1cc2c(Oc3cccc(NC(=O)Nc4cc(C(C)(C)F)no4)c3)ncnc2cc1O [Ex 257, 1-(3-(2-fluoropropan-2-yl)isoxazol-5-yl)-3-(3-(7-hydroxy-6-methoxyquinazolin-4-yloxy)phenyl)urea] | C (0.20 < C ≦ 0.40) |
| COc1cc2ncnc(Oc3cc(NC(=O)Nc4cc(C(C)(C)C)nn4-c4ccc(C)cc4)c(F)cc3F)c2cc1OC [Ex 272, 1-(3-tert-butyl-1-p-tolyl-1H-pyrazol-5-yl)-3-(5-(6,7-dimethoxyquinazolin-4-yloxy)-2,4-difluorophenyl)urea] | D (D > 0.40) |
| COc1cc2ncnc(Oc3ccc(Cl)c(NC(=O)Nc4cc(C(F)(F)F)nn4-c4ccccc4)c3)c2cc1OC [Ex 300, 1-(2-chloro-5-(6,7-dimethoxyquinazolin-4-yloxy)phenyl)-3-(1-phenyl-3-(trifluoromethyl)-1H-pyrazol-5-yl)urea] | C (0.20 < C ≦ 0.40) |
| COc1cc2ncnc(Oc3cccc(NC(=O)Nc4cc(C(C)(C)C)on4)c3C)c2cc1OC [Ex 290, 1-(5-tert-butylisoxazol-3-yl)-3-(3-(6,7-dimethoxyquinazolin-4-yloxy)-2-methylphenyl)urea] | C (0.20 < C ≦ 0.40) |
| COc1cc2ncnc(Oc3cccc(NC(=O)Nc4cc(C(C)(C)C)nn4-c4ccccc4C(F)(F)F)c3)c2cc1OC [Ex 376, 1-(3-tert-butyl-1-(2-(trifluoromethyl)phenyl)-1H-pyrazol-5-yl)-3-(3-(6,7-dimethoxyquinazolin-4-yloxy)phenyl)urea] | D (D > 0.40) |
| COc1cc2ncnc(Sc3cccc(NC(=O)Nc4cc(C5(C(F)(F)F)CC5)on4)c3)c2cc1OC [Ex 378, 1-(3-(6,7-dimethoxyquinazolin-4-ylthio)phenyl)-3-(5-(1-(trifluoromethyl)cyclopropyl)isoxazol-3-yl)urea] | C (0.20 < C ≦ 0.40) |
| COc1cc2ncnc(Oc3cccc(NC(=O)Nc4cc(C(C)(C)C)nn4-c4ccc(Cl)cc4)c3)c2cc1OC [Ex 365, 1-(3-tert-butyl-1-(4-chlorophenyl)-1H-pyrazol-5-yl)-3-(3-(6,7-dimethoxyquinazolin-4-yloxy)phenyl)urea] | D (D > 0.40) |
| COc1cc2ncnc(Sc3cccc(NC(=O)Nc4cc(C(C)(C)C#N)no4)c3)c2cc1OC [Ex 381, 1-(3-(2-cyanopropan-2-yl)isoxazol-5-yl)-3-(3-(6,7-dimethoxyquinazolin-4-ylthio)phenyl)urea] | C (0.20 < C ≦ 0.40) |
| COc1cc2ncnc(Oc3cc(NC(=O)Nc4cc(C(F)(F)F)nn4-c4ccccc4)c(F)cc3F)c2cc1OC [Ex 271, 1-(5-(6,7-dimethoxyquinazolin-4-yloxy)-2,4-difluorophenyl)-3-(1-phenyl-3-(trifluoromethyl)-1H-pyrazol-5-yl)urea] | D (D > 0.40) |
| CCOc1cc2c(Oc3cccc(NC(=O)Nc4cc(C(C)(C)C(F)(F)F)on4)c3)ncnc2cc1OC [Ex 260, 1-(3-(6-ethoxy-7-methoxyquinazolin-4-yloxy)phenyl)-3-(5-(1,1,1-trifluoro-2-methylpropan-2-yl)isoxazol-3-yl)urea] | C (0.20 < C ≦ 0.40) |
